Results reported in patent publication US9902761B2, “Polypeptides, nucleic acids and uses thereof” (AGENCY FOR SCIENCE, TECHNOLOGY AND RESEARCH, priority 2013, dated 2018).
Numbering of substitutions follows the chain as printed.

Key:
[1] = tested on: ELA processing and secretion; test: Xenopus secretion assay of human ELA; assay type: cell-based, Xenopus laevis; conditions: increasing amounts of inhibitor
Method: ZFNs were purchased from Sigma-Aldrich. […] of mRNAs encoding the ZFN pair were injected into 1-cell stage embryos. ZFN binding sites within exon 1 are as follows: 5′_[…]_3′ (SEQ ID NO: 133) and 5′_[…] 3′ (SEQ 1D NO: 134). Sequencing primers flanking the mutation sites are: forward 5′_[…]_3′ (SEQ ID NO: 135), reverse 5′_[…] 3′ (SEQ ID NO: 136). For ela overexpression, 200 pg of SP6-transcribed zebrafish ela capped mRNA (Applied Biosystems) was injected into 1-cell stage zebrafish embryos. Translation blocking MOs used for aplnra and aplnrb have been described previously (Scott et al., 2007; Zeng et al., 2007) and were purchased from Gene tools (Oregon, USA). Embryos were injected at 1-cell stage with a combination of 1 ng of aplnra MO and 0.5 ng of apinrb MO (Zeng et al., 2007). Information on probes used for q-PCR and WISH can be found in Tables E1 and E2. Zebrafish embryos at 100% epiboly were dechorionated and processed for western blotting as previously described (Link et al., 2006). For the Xenopus secretion assay, 16 ng of SP6-transcribed human ELA capped mRNA (Applied Biosystems) was injected into each cell of 4-cell stage embryos. At stage 8, embryos were dechorionated and dissociated in CMFM medium with 5 mM EDTA. […]

hESCs [2] = test: survival of hESCs after single-cell dissociation (anoikis); assay type: cell-based, human; conditions: with or without Y-27632
Method: (§1) hESCs were dissociated into single cells using Accutase (Stem Cell Technologies) and plated in the presence of 10 μM Y-27632 (ROCK inhibitor) for 12 hours (Watanabe et al., 2007).

hESCs [3] = test: AP-ELA cell surface binding assay on hESCs; parameters: species or system human; conditions: undifferentiated hESCs
zebrafish aplnra = target: T1, zebrafish aplnra (Danio rerio, UniProt Q7SZP9); test: AP-ELA binding assay, 293T cells overexpressing receptor; conditions: HEK293T overexpression
T1 sequence (Q7SZP9 1-362): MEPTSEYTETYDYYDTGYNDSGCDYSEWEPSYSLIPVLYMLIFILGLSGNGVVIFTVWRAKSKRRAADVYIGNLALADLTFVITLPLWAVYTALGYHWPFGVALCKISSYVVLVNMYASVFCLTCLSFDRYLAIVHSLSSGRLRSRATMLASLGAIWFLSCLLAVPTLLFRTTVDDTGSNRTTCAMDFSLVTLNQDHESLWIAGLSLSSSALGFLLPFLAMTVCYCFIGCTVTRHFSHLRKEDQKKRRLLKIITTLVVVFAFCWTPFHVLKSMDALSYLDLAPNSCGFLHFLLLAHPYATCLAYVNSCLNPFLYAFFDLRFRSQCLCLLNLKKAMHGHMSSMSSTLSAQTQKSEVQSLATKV

zebrafish aplnrb = target: T2, zebrafish aplnrb (Danio rerio, UniProt A0T2N3); test: as above; conditions: HEK293T overexpression
T2 sequence (A0T2N3 1-359): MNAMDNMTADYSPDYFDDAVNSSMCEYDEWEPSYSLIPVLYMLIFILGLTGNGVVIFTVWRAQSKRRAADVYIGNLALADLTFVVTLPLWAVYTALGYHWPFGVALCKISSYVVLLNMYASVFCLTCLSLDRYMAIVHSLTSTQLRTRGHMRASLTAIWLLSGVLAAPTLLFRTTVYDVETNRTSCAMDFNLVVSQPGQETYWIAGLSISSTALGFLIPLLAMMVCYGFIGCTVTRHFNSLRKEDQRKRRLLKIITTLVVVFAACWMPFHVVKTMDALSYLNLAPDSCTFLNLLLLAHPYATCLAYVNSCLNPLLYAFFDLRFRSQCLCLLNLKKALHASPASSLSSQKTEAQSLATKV

aplnrb^grinch (W90L) = target: T3, aplnrb^grinch (W90L) (Danio rerio, UniProt A0T2N3, W90L); test: as above; conditions: 293T overexpression
T3 sequence (A0T2N3 1-359 W90L): T2 sequence (A0T2N3 1-359) with W90L

hESCs [4] = assay type: cell-based, human; conditions: data not shown
hESCs [5] = test: xCELLigence real time growth assay, cell counts and colony size of hESCs; assay type: cell-based, human
Method: Feeder-free hESCs were cultured in clumps in mTSER1 (Stem Cell Technologies) on Matrigel (BD 354277).
as §1
For xCELLigence real time growth assays, 4000 cells were plated per well of an E-plate (ACEA Biosciences) with media changes every 48 hours.
Recombinant ELA was added at 2.5 uM (or 10 μg/ml). Cell cycle studies were performed with Click-iT EDU staining kit (Invitrogen) and by performing a double thymidine block (2.5 mM thymidine; 16 hour block, 8 hour release, 16 hour block) followed by DAPI staining for DNA content at the indicated times following release.

ELA = target: T4, ELA (Homo sapiens, UniProt P0DMC3); test: extracellular neutralizing assay with affinity purified anti-ELA antibodies in hESC culture; assay type: cell-based; conditions: peptide added with α N antibodies
T4 construct: ELA is an endogenous secreted peptide that is essential for the survival and self-renewal of hESCs; endogenous in cells; host or cells: hESCs (Shef4 / Shef4TetR5)
T4 sequence (P0DMC3 23-54): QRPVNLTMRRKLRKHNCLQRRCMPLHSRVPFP

PI3K/AKT pathway = test: signaling pathway assay in starved hESCs pulsed with peptide (SDS-PAGE, western); assay type: cell-based, human; conditions: 5 uM peptide after 2-hour starvation
Method: To assay the signaling pathway activated by ELA, hESCs were dissociated and plated in mTSER1 for 48 hours, followed by a 2-hour starvation in DMEM/F12. Synthetically produced ELA or ELA^RR>GG peptides, dialyzed against PBS to remove any residual synthesis buffers, were added at a final concentration of 5 uM (or as indicate(D) for the indicated period of time. Where applicable, PI3K inhibitors LY294002 (5 uM) and Wortmannin (1 uM) were added 30 minutes before pulsing with ELA peptides. Cells were lysed with PhosphoSafe™ (Millipore) for SDS-PAGE.

hESCs [6] = test: insulin replacement assay in hESCs; assay type: cell-based, human; conditions: SHEF4 and HESC3 hESCs, 24 hours of growth without INSULIN
Method: For insulin replacement assays, SHEF4 or HESC3 hESCs were cultured in TSER-E5 (Stem Cell Technologies) supplemented with TGF-β (5 ng/ml, R&D Systems) and bFGF (100 ng/ml, Invitrogen) with and without INSULIN (10 ug/ml, SIGMA).

hESCs [7] = test: stress-induced apoptosis of hESCs by ActinomycinD; assay type: cell-based, human; conditions: for resistance or sensitivity to ActinomycinD: nanomolar concentrations of ActinomycinD
Method: To induce apoptosis, hESCs were treated with the indicated doses of ActinomycinD (Sigma) or ionizing radiation followed by Aqueous One Cell Titer (Promega) or CASPASE GLO3/7 (Promega) assays 12 hours post-treatment.

hESCs [8] = test: qPCR of mesendodermal markers in hESCs; assay type: cell-based, human
Method: After the indicated time periods, embryoid bodies were harvested and RNA extracted using RNeasy kit ([…]). qPCR reactions were carried out using either Universal FastSlart SYBR Green Mastermix (Roche) or using the Universal Probe Library system (Roche) in tandem with Taqman Fast Mastermix (Invitrogen). Primer sequences can be found in Table E1.

hESCs [9] = test: directed endoderm differentiation of hESCs, SOX17+ cell count; assay type: cell-based, human
Method: Shef4TetR5-shELA and Shef4TetR5-shβ2M cells were cultured in the presence (shELA and shβ2M respectively) or absence (Control) of 20 ng/ml doxycycline for 1 passage (4 days) and dissociated with Accutase. […] 24 hours later, the media was changed to Endo differentiation media 1 [RPMI 1640 (Gibco), 1× B-27 supplement (Invitrogen), 50 ng/ml of Activin A (R&D Systems), 25 ng/ml BMP4 (R&D Systems) and 50 ng/ml bFGF (Invitrogen)] for 3 days. On day 3, the media was changed to Endo differentiation media 2 (RPMI 1640, B27, 50 ng/ml Activin) for 2 more days of culture. Rescue experiments were performed by adding 2.5 uM of ELA peptide to Shef4TetR5-shELA concurrently with doxycycline up to day 3, when the ELA peptide is no longer necessary as judged by downregulation of endogenous ELA.
On day 5, cells were fixed with 4% paraformaldehyde and stained with α SOX17 (AF1924, R&D Systems) and DAPI. For each well, three different randomly selected fields were imaged and the number of nuclei staining positive of SOXI 7 and DAPI were counted using a custom macro in ImageJ. A minimum of two wells per condition was used for each experiment, and a minimum of two independent experiments were performed to generate the results.

hESCs [10] = test: stress-induced apoptosis of hESCs by ionizing radiation; assay type: cell-based, human
hESCs [11] = test: pluripotency markers and colony morphology of knockdown hESCs; assay type: cell-based, human; conditions: prolonged depletion
Method: To generate stable inducible knockdown of ELA in hESCs, the sequence […] (SEQ ID NO: 132) targeting the 3′UTR of ELA was cloned into pSUPERIOR (Oliogoengine) and nulcleofected (Lonza) into Shef4TetR5 hESCs (Zafarana et al., 2009). Neomycin-resistant cells were clonally expanded and assayed for doxycycline (20 ng/ml)-inducible knockdown. Data from one representative clone (ShefTetR5 shELA) are shown in this paper. Shef4TetR5 shβ2M were derived as previously described (Zafarana et al., 2009). Unless otherwise stated, ELA knockdown was induced on Day −4 with 20 ng/ml doxycycline to generate shELA cells.

[12] = teratoma analysis after subcutaneous injection of hESCs; assay type: in vivo, SCID mice; conditions: 10 million cells subcutaneously, day 60
Method: Shef4TetR5-shELA cells were cultured in the presence (shELA) or absence (Control) of 20 ng/ml doxycycline for 3 passages (4 days/passage). Cells were harvested with Accutase (Stemcell Technologies) and resuspended in 1 part Matrigel to 2 parts mTSERL. 10 million cells in 200 μl were injected subcutaneously into the right hind paunches of SCID mice. shELA-injected mice were fed doxycycline (20 μg/ml) for 3 weeks following injection. Mice were sacrificed 60 days post-injection for tumor analysis.

hESCs [13] = test: protein synthesis by incorporation of fluorescently-labeled amino acids; assay type: cell-based, human
hESCs [14] = test: stress-induced apoptosis of hESCs by ActinomycinD; assay type: cell-based, human

C[C@H]1CCC/C=C/[C@@H]2C[C@H](O)C[C@H]2[C@H](O)/C=C/C(=O)O1 [Brefeldin A]
ELA processing and secretion [1]: able to block ELA processing and secretion

C[C@@H](N)[C@H]1CC[C@H](C(=O)Nc2ccncc2)CC1 [ROCK inhibitor, Y-27632, reference compound]
survival following dissociation (anoikis) (hESCs [2]): protects against anoikis

AP-ELA: mature C-terminal 32-mer of ELA cloned in frame with alkaline phosphatase, secreted from 293T cells
binding of AP-ELA to hESCs (hESCs [3]): readily bind | cell-surface binding of AP-ELA to aplnra (zebrafish aplnra): sufficient to afford cell-surface binding | cell-surface binding of AP-ELA to aplnrb (zebrafish aplnrb): sufficient to afford cell-surface binding | binding of AP-ELA to aplnrb^grinch (aplnrb^grinch (W90L)): unable to bind AP-ELA

APELIN-13
effect on hESCs (hESCs [4]): no effect on hESCs

ELA^RR>GG: doubly mutated ELA mutant peptide (R31G, R32G), non-signaling (QRPVNLTMGGKLRKHNCLQRRCMPLHSRVPFP)
growth of hESCs relative to untreated cells (hESCs [5]; cell counts, colony size, real-time cell indices, peptide 2.5 uM (10 μg/ml)): without effect | competition of the neutralizing activity of the antibody by peptide (ELA): competed out | phosphorylation of AKT at serine 473 and PRAS40 at threonine 246 (PI3K/AKT pathway): not observed | rescue in cell viability in the absence of INSULIN (hESCs [6]): exerted no effects | resistance or sensitivity to ActinomycinD (hESCs [7]): no protective effect

GTGATTCTCGTGCCTCAAC (expressed or natural sequence) [shELA, doxycycline-inducible shRNA targeting the 3′UTR of ELA in Shef4TetR5 hESCs]
growth rates of knockdown hESCs seeded as single cells (hESCs [5]; real-time cell index, compared to control and shβ2M hESCs): markedly reduced growth rates | colony size of knockdown hESCs (hESCs [5]; relative to shβ2M hESCs): less than half the size | expression of mesendodermal genes GATA6, GATA4, FOXA2, EOMES and BRA (hESCs [8]): conversely downregulated | reduction over control in the number of SOX17+ cells (hESCs [9]; 5 days directed differentiation, FIG. 6F): 45% | reduction of SOX17 expression (hESCs [9]; directed differentiation, control, shELA and shβ2M, FIG. 13C): 35% | sensitivity to gamma irradiation relative to control (hESCs [10]): twice as sensitive | activated CASPASE 3 after irradiation (hESCs [10]; 3 hours after 1 Gray of γ irradiation): higher levels of activated CASPASE 3 | activated CASPASE3/7 and CASPASE 9 after ActinomycinD (hESCs [7]): increased levels of activated CASPASE3/7 | resistance or sensitivity to ActinomycinD (hESCs [7]): more sensitive compared to control | survival following dissociation (anoikis) (hESCs [2]): do not survive single-cell dissociation | pluripotency markers POU5F1, NANOG, SSEA3 and TRA-1-60 (hESCs [11]): downregulation of pluripotency markers | teratoma formation [12]: did not form teratomas | protein synthesis (hESCs [13]): reduced protein synthesis | levels of MCL-1 (hESCs [14]): lower levels | BAX localisation (hESCs [14]; mitochondria versus cytoplasm): higher levels of BAX in the mitochondria
